What was measured:
[1] = LNP size and polydispersity index by Dynamic Light Scattering (Malvern Zetasizer); type: physicochemical; settings: N/P 10
Method: (§1) Lipid based nanoparticles are produced by microfluidic mixing of an mRNA solution in sodium acetate buffer (100 mM, pH4) and lipid solution in a 2:1 volume ratio at a speed of 9 mL/min using the NanoAssemblr Benchtop (Precision Nanosystems). The lipid solution contained a mixture of the ionizable lipid of interest, DSPC, DOPC or DOPE (Avanti), Cholesterol (Sigma) and DMG-PEG2000 (Sunbright GM-020, NOF corporation. The 4 lipids were mixed at 6 different molar ratios. LNPs were dialyzed against TBS (10000 times more TBS volume than LNP volume) using slide-a-lyzer dialysis cassettes (20K MWCO, 3 mL, ThermoFisher). Size, polydispersity and zeta potential were measured with a Zetasizer Nano (Malvern). mRNA encapsulation was measured by standard Ribogreen RNA assay (Invitrogen).
Size and Poly Dispersity Index were assessed by Dynamic Light Scattering (DLS) on a Malvern Zetasizer. MC-3 is the ionizable lipid used in Onpattro and is considered the state-of-the art.
(§2) LNP formulations were prepared using a modified procedure of a method previously described for siRNA LNP synthesis. All formulations were prepared in a sterile manner with a N/P ratio of 10. All lipid components were dissolved in ethanol at molar ratios of 50:10:38.5:1.5 mol % (ionizable lipid/DSPC/Cholesterol/DMG-PEG2000). DSPC, Cholesterol and DMG-PEG2000 were purchased from Avanti Polar Lipids (Alabaster, Alabama, USA), while the Ionizable lipids are synthesized in-house. The final lipid concentration in ethanol was fixed at 10 mg/mL. E7 mRNA was dissolved in 100 mM acetate buffer (Sigma Aldrich, Saint-Louis, Missouri, USA) pH 4. The ethanol and aqueous phase were combined using a microfluidic mixer (NanoAssemblr® BenchTop (Precision Nanosystems, Vancouver, BC) in a 2:1 (aqueous:ethanol) ratio. Formulations were dialysed afterwards against 1× Sterile TBS pH 7.4 (Sigma Aldrich, Saint-Louis, Missouri, USA) using Slide-A-Lyzer® dialysis cassettes with a MWCO of 20.000 Da (Thermo Scientific, Massachusetts, USA) for 18 hours. Afterwards, the purified formulations were concentrated using Amicon ultra centrifugal filters (EMD Millipore, Massachusetts, USA). Finally, the exact concentration and E.E. % was determined through a Ribogreen Assay prior to final dilution with TBS (100 μg/mL E7 mRNA per formulation. All formulations were characterized for size and PDI using Dynamic Light Scattering Zetasizer Nano-ZS (Malvern Pananlytical Ltd., Malvern, UK) and stored afterwards at 4° C. The physico-chemical characteristics of each formulation can be found in Table 5.

[2] = as above; type: physicochemical
E7-specific CD8 T cells = assay: E7-specific CD8 T cell response after intramuscular E7 mRNA LNP vaccination (Example 5); type: in vivo, mice; settings: Example 5, FIG. 13, in vitro stimulation with E7-derived peptide, vs MC-3
[3] = mRNA encapsulation efficiency by Ribogreen RNA assay; type: physicochemical; settings: for E.E. (encapsulation efficiency): N/P 10
Method: as §1, with “(Invitrogen). […]” for “(Invitrogen).”
as §2

liver [4] = assay: Fluc mRNA off-target expression in liver after intratumoral LNP injection of B16F10 tumors; type: in vivo, C57/BL6 mice; settings: B16F10 tumors (Example 2.5); intratumoral 10 μg mRNA; 6 hours and 24 hours post injection; vs MC-3 based benchmark LNP
Method: (§3) In case of CT26 tumor inoculation we used Balb/c mice. For B16F10 tumor inoculation C57/BL6 mice were used. To prepare for subcutaneous tumor inoculation, mice were anesthetized using 2.5% isoflurane and the injection site was shaved. The injection site is typically on the posterior/lateral aspect of the lower left flank. For inoculation purposes, cells need to be approximately 1 week in culture and between passage 3 and 5 after thawing. Cold tumor cell solution was injected subcutaneously at a dose of 0.5*10e6 cells/50 μl PBS. Tumor growth was measured every 2-3 days using the Caliper device. The following formula was used to calculate tumor size: (tumor width*tumor width*tumor length)/2. […] After injections, mice were always monitored for 5-10 minutes until fully awake without showing any sings of pain distress or complications.
(§4) Fluc mRNA expression in tumor and liver was assessed at 6 an 24 hours post injection. By injecting mice peritoneally with D-luciferin (Promega), bioluminescence can be measured through in vivo imaging (IVIS Spectrum System). […] The Living Image Software (PerkinElmer) was used to specify tumor and liver ‘region of interests (ROIs) after which the average radiance (p/s/cm^2/sr) was calculated within these ROIs. […]

liver [5] = assay: Fluc mRNA off-target expression in liver after intratumoral LNP injection of CT26 tumors; type: in vivo, Balb/c mice; settings: intratumoral 10 μg mRNA, 6 hours and 24 hours post injection, vs MC-3 based benchmark LNP
Method: as §3, §4

B16F10 tumors = assay: Fluc mRNA expression in tumor after intratumoral LNP injection, in vivo bioluminescence; parameters: species or system C57/BL6 mice; settings: B16F10 tumors (Example 2.5); intratumoral 10 μg mRNA; 6 hours and 24 hours post injection; vs MC-3 based benchmark LNP
Method: as §3, §4

[6] = Body weight after intratumoral LNP administration (B16F10 model); type: in vivo, C57/BL6 mice; settings: B16F10 model (Example 2.5); after intratumoral administration of 10 μg mRNA LNP
[7] = Body weight after intratumoral LNP administration (CT26 model); type: in vivo, Balb/c mice; settings: after intratumoral administration of 10 μg mRNA LNP
Method: Fluc mRNA expression in tumor and liver was assessed at 6 an 24 hours post injection. By injecting mice peritoneally with D-luciferin (Promega), bioluminescence can be measured through in vivo imaging (IVIS Spectrum System). Bioluminescence is generated through an oxidation reaction which occurs between the enzyme luciferase derived from the firefly mRNA encapsulated in the LNP and its substrate D-luciferin. The Living Image Software (PerkinElmer) was used to specify tumor and liver ‘region of interests (ROIs) after which the average radiance (p/s/cm^2/sr) was calculated within these ROIs. To monitor tolerability of different LNP types used, bodyweight at 6 and 24 hours post injection was compared to baseline bodyweight at day of randomization.
Balb/c mice were subcutaneously inoculated with CT26 tumor cells. When tumors reached a mean volume of 50-100 mm^3, tumors were injected with the respective mRNA LNPs (10 μg mRNA; 20 μl volume; TBS buffer) or with control buffer.

[8] = Table 7, Ratio 1: 50/10/38.5/1.5 mol % ionizable lipid/DSPC (SS-EC: DOPE)/Chol/DMG-PEG2000
[9] = Table 6 (Example 4, HA mRNA), ionizable lipid/DSPC/Chol/DMG-PEG2000 50/10/38.5/1.5 mol %, N/P 10
[10] = Table 7, Ratio 2: 56.71/14.43/27.58/1.28 mol % ionizable lipid/DSPC/Chol/DMG-PEG2000, N/P 10
[11] = Table 6 (Example 4, HA mRNA), ionizable lipid/DSPC/Chol/DMG-PEG2000 50/10/38.5/1.5 mol %
[12] = Table 7, Ratio 2: 56.71/14.43/27.58/1.28 mol % ionizable lipid/DSPC/Chol/DMG-PEG2000
[13] = Table 5, ionizable lipid/DSPC/Chol/DMG-PEG2000 50/10/38.5/1.5 mol %, E7 mRNA
[14] = Table 3, LNP ionizable lipid/phospholipid/cholesterol/DMG-PEG2000 about 50/10/38.5/1.5, DOPE, except MC-3 with DSPC, eGFP mRNA

## CCCCCCCCC(CCCCCC)C(=O)OCCN(CCOC(=O)C(CCCCCC)CCCCCCCC)C(=O)OCCSSCCOC(=O)NCCN1CCCCCC1 (stereo not drawn) [S-Ac7-DHDa]
[1]; [8]
  PDI: 0.095
  size: 90 nm
[2]; [9]
  PDI: 0.083
  size: 105.1 nm
[2]; [10]
  PDI: 0.081
  size: 88 nm
E7-specific CD8 T cells
  T cell responses (IFNg+, IFNg+ TNFa+, IFNg+ Granzyme b+, IFNg+ CD107+ CD8 T cells in spleen): superior T cell responses compared to MC-3
[3]; [11]
  E.E. (encapsulation efficiency): 97%
[3]; [8]
  E.E. (encapsulation efficiency): 97%
[3]; [12]
  E.E. (encapsulation efficiency): 95%

## CCCCCCCC/C=C\CCCCCCCC(=O)OCC(CNC(=O)OCCSSCCOC(=O)NCCN1CCCCCC1)OC(=O)CCCCCCC/C=C\CCCCCCCC (stereo not drawn) [S-Ac7-DOg]
[1]; [13]
  PDI: 0.062
  size: 97.51 nm
[1]; [8]
  PDI: 0.094
  size: 109 nm
[2]; [14]
  PDI: 0.21
[2]; Table 3, LNP ionizable lipid/phospholipid/cholesterol/DMG-PEG2000 about 50/10/38.5/1.5, DOPE, except MC-3 with DSPC, eGFP mRNA, in nm (unit assumed)
  size: 87.46
[2]; [9]
  PDI: 0.077
  size: 93.62 nm
[2]; [10]
  PDI: 0.106
  size: 97 nm
Liver [4]
  off-target Fluc expression in the liver: strongly reduced off-target expression in the liver
Liver [5]
  off-target Fluc expression in the liver: strongly reduced off-target expression in the liver
B16F10 tumors
  Fluc expression levels in the tumor (in vivo bioluminescence): increased Fluc expression levels in the tumor compared to the MC-3 based benchmark LNP
[6]
  body weight: No weight loss
[7]
  body weight: No weight loss
[3]; [14]
  % encap: 90%
[3]; [13]
  E.E. (encapsulation efficiency): 96%
[3]; [11]
  E.E. (encapsulation efficiency): 98%
[3]; [8]
  E.E. (encapsulation efficiency): 97%
[3]; [12]
  E.E. (encapsulation efficiency): 96%

Reference: US20240050574A1, “IONIZABLE LIPIDS” (eTheRNA immunotherapies NV, priority 2020, published 2024)
